In data set [1] the test system is T1, CTL2-GFP (C. trachomatis L2/434/Bu, GFP-expressing).
T1 construct: L2/434/Bu, GFP-expressing
Put plainly: microbe, parasite or virus in culture. More on the design: Intracellular C. trachomatis growth in HeLa cells, bulk GFP fluorescence relative to DMSO. Particulars: Chlamydia trachomatis, HeLa, 28.5 h; bulk GFP, mean of 2; read-out: % of control remaining. How it is done: MICs were calculated as described above.

A short description of another data set: in vitro. More on the design: Viability of infected HeLa host cells, resazurin conversion, bulk resorufin fluorescence relative to DMSO. Particulars: human, hela cells; bulk resorufin, mean of 2.
In data set [2] the test system is T2, C. trachomatis L2/434/Bu expressing GFP (CTL2-GFP).
T2 construct: L2/434/Bu GFP intracellular growth in HeLa cells
Put plainly: microbe, parasite or virus in culture. More on the design: C. trachomatis total inclusion area by high-content imaging, normalised to DMSO. The conditions noted are these: Chlamydia trachomatis, HeLa, 28.5 h; total inclusion area; read-out: % of control remaining. The text has this: We screened a library of 36,785 small molecules displaying drug-like properties and covering a wide chemical space (Fig 1A and S2A Data). In this process, we also complemented the assay described above with an imaging-based readout (Fig 1B). After measurements of bulk GFP and resorufin fluorescence, cells were fixed, stained with the DNA dye Hoechst, and imaged at a high-content imaging platform to detect chlamydial inclusions (GFP) and host cell nuclei (Hoechst). The total area and number of inclusions in individual wells and the number of nuclei then served as additional proxies for chlamydial growth and host cell viability. […] MICs were calculated as described above.

SMILES strings stand for the structures.

`O=C(N/N=C\c1ccc([N+](=O)[O-])o1)c1nc(-c2ccccc2)cc(-c2ccccc2)n1` [CBK261958]: in data set [1], the activity at 1 µM amounted to 6.03%, the activity at 5 µM stood at 1.53% and the activity at 10 µM was 7.08%. For the same molecule, in the data set “in vitro”, the viability at 28.5 h, 1 µM is 90%; the viability at 28.5 h, 5 µM worked out at 91.8%; the viability at 28.5 h, 10 µM worked out at 87.8%. In addition, in data set [2], the activity at 1 µM was 4.65%, the activity at 5 µM came to 0.0567% and the activity at 10 µM amounted to 0%.

`CN(C)CCCNC(=O)c1ccc([N+](=O)[O-])o1` [CBK262118]: in data set [1], the activity at 1 µM came to 133%, the activity at 5 µM amounted to 80.5% and the activity at 10 µM was determined as 42.1%. Besides, in “in vitro”, the viability at 28.5 h, 1 µM was determined as 97.2%; the viability at 28.5 h, 5 µM was 98.6%; the viability at 28.5 h, 10 µM was 104%. Also, in data set [2], the activity at 1 µM came out at 104%, the activity at 5 µM was found to be 60.7% and the activity at 10 µM stood at 34.6%.

Take `O=C(O)/C(=N\c1cccc2ccccc12)c1ccccc1` [CBK262224]: in data set [1], the activity at 1 µM came to 80.4%, the activity at 5 µM amounted to 66.5% and the activity at 10 µM came out at 49.9%. In “in vitro”, the viability at 28.5 h, 1 µM was determined as 87.4%; the viability at 28.5 h, 5 µM was determined as 88.7%; the viability at 28.5 h, 10 µM worked out at 96%. In data set [2], the activity at 1 µM stood at 69.5%, the activity at 5 µM came out at 62.2% and the activity at 10 µM amounted to 32.2%.

For `CC(Nc1cccc2ccccc12)C(=O)N/N=C/c1c(O)ccc2ccccc12` (stereo not drawn) [CBK262678], in data set [1], the activity at 1 µM was 132%, the activity at 5 µM worked out at 74.4% and the activity at 10 µM came to 72.2%. Further, in “in vitro”, the viability at 28.5 h, 1 µM worked out at 90.9%; the viability at 28.5 h, 5 µM is 83%; the viability at 28.5 h, 10 µM was 74.2%. In addition, in data set [2], the activity at 1 µM was 100%, the activity at 5 µM came to 47.4% and the activity at 10 µM is 21%.

Regarding `COc1cc(NS(=O)(=O)c2ccc(Nc3nc(-c4sc(N)nc4C)cs3)cc2)nc(OC)n1` [CBK262796], in data set [1], the activity at 1 µM is 106%, the activity at 5 µM is 58.4% and the activity at 10 µM came to 32.6%. In the data set “in vitro”, the viability at 28.5 h, 1 µM was 93.6%; the viability at 28.5 h, 5 µM is 92.2%; the viability at 28.5 h, 10 µM was found to be 88%. Further, in data set [2], the activity at 1 µM was determined as 110%, the activity at 5 µM is 55.3% and the activity at 10 µM came out at 28.8%.

In the case of `CCCCc1ccc(NC(=N)Nc2nc(C)cc(C)n2)cc1` [CBK262967], in data set [1], the activity at 1 µM is 89.4%, the activity at 5 µM is 33.4% and the activity at 10 µM is 22%. Moreover, in “in vitro”, the viability at 28.5 h, 1 µM was 90.3%; the viability at 28.5 h, 5 µM came to 95.4%; the viability at 28.5 h, 10 µM stood at 90%. Moreover, in data set [2], the activity at 1 µM is 75.4%, the activity at 5 µM came out at 38.5% and the activity at 10 µM amounted to 9.61%.

For the molecule `OC(CN1CCOCC1)Cn1c(-c2ccccc2)c(-c2ccccc2)c2ccc3ccccc3c21` (stereo not drawn) [CBK263996G], in data set [1], the activity at 1 µM came out at 113%, the activity at 5 µM was determined as 96.6% and the activity at 10 µM came out at 91.1%. Also, in the data set “in vitro”, the viability at 28.5 h, 1 µM came to 90.5%; the viability at 28.5 h, 5 µM stood at 92.4%; the viability at 28.5 h, 10 µM came to 89.5%. In data set [2], the activity at 1 µM worked out at 101%, the activity at 5 µM is 73.2% and the activity at 10 µM came to 61.6%.

For `Cc1noc(NS(=O)(=O)c2ccc(NC(=O)COc3cccc(Br)c3)cc2)c1C` [CBK264086], in data set [1], the activity at 1 µM was 96.8%, the activity at 5 µM amounted to 38.7% and the activity at 10 µM turned out to be 17.8%. In “in vitro”, the viability at 28.5 h, 1 µM was 89.3%; the viability at 28.5 h, 5 µM is 91.3%; the viability at 28.5 h, 10 µM stood at 94.3%. Moreover, in data set [2], the activity at 1 µM amounted to 93.1%, the activity at 5 µM turned out to be 45.5% and the activity at 10 µM was 20.6%.

On to `Cc1ccc(C(=O)/C=C\Nc2ccc(S(=O)(=O)Nc3cc(C)nc(C)n3)cc2)cc1` [CBK264384], for which, in data set [1], the activity at 1 µM stood at 110%, the activity at 5 µM turned out to be 72.4% and the activity at 10 µM worked out at 31.8%. Further, in the data set “in vitro”, the viability at 28.5 h, 1 µM came to 107%; the viability at 28.5 h, 5 µM turned out to be 108%; the viability at 28.5 h, 10 µM turned out to be 104%. In addition, in data set [2], the activity at 1 µM was 79.2%, the activity at 5 µM was found to be 51.7% and the activity at 10 µM came out at 35.8%.

Turning to `CCc1ccc(S(=O)(=O)Nc2cc(SCC(=O)O)c(O)c3ccccc23)cc1` [CBK265580], in data set [1], the activity at 1 µM is 97.7%, the activity at 5 µM came out at 47% and the activity at 10 µM turned out to be 37.3%. Moreover, in the data set “in vitro”, the viability at 28.5 h, 1 µM is 95.6%; the viability at 28.5 h, 5 µM amounted to 88.8%; the viability at 28.5 h, 10 µM was found to be 81.9%. In data set [2], the activity at 1 µM is 84.1%, the activity at 5 µM came to 15.3% and the activity at 10 µM is 7.41%.

For the molecule `Cc1cc(C)nc(NC(=N)NCCc2c[nH]c3ccccc23)n1` [CBK266321], in data set [1], the activity at 1 µM was found to be 89.2%, the activity at 5 µM stood at 67.2% and the activity at 10 µM was determined as 37.1%. In addition, in “in vitro”, the viability at 28.5 h, 1 µM came out at 109%; the viability at 28.5 h, 5 µM was found to be 98.8%; the viability at 28.5 h, 10 µM was determined as 81.2%. Also, in data set [2], the activity at 1 µM amounted to 75.6%, the activity at 5 µM came out at 44.4% and the activity at 10 µM is 14.7%.

Turning to `OCCNc1nc(Nc2ccc(Br)cc2)nc2ccccc12` [CBK266724C], in data set [1], the activity at 1 µM was found to be 69.3%, the activity at 5 µM came out at 0.15% and the activity at 10 µM is 0%. For the same molecule, in “in vitro”, the viability at 28.5 h, 1 µM came to 122%; the viability at 28.5 h, 5 µM is 116%; the viability at 28.5 h, 10 µM stood at 121%. Also, in data set [2], the activity at 1 µM turned out to be 59.5%, the activity at 5 µM is 2.92% and the activity at 10 µM was 0.726%.

Turning to `O=C(CC1SC(Nc2ccc(O)cc2)=NC1=O)c1ccccc1` (stereo not drawn) [CBK267009], in data set [1], the activity at 1 µM was found to be 65.7%, the activity at 5 µM stood at 34% and the activity at 10 µM came to 33%. In the data set “in vitro”, the viability at 28.5 h, 1 µM was found to be 114%; the viability at 28.5 h, 5 µM came to 112%; the viability at 28.5 h, 10 µM is 107%. Besides, in data set [2], the activity at 1 µM came out at 84.6%, the activity at 5 µM stood at 35.2% and the activity at 10 µM came to 35.5%.

Turning to `O=C(CSCc1ccc(Cl)cc1)Nc1ccc(S(=O)(=O)N2CCCCCC2)cc1` [CBK267017], in data set [1], the activity at 1 µM was 99.4%, the activity at 5 µM amounted to 85% and the activity at 10 µM was 60.7%. Further, in the data set “in vitro”, the viability at 28.5 h, 1 µM came out at 101%; the viability at 28.5 h, 5 µM came out at 104%; the viability at 28.5 h, 10 µM worked out at 104%. In data set [2], the activity at 1 µM is 92.3%, the activity at 5 µM is 104% and the activity at 10 µM is 54.9%.

For the molecule `O=C(O)c1[nH]c2ccccc2c1C(c1ccsc1)c1c(C(=O)O)[nH]c2ccccc12` [CBK267811], in data set [1], the activity at 1 µM was determined as 113%, the activity at 5 µM turned out to be 109% and the activity at 10 µM is 85.2%. In addition, in “in vitro”, the viability at 28.5 h, 1 µM came out at 99.3%; the viability at 28.5 h, 5 µM was determined as 106%; the viability at 28.5 h, 10 µM was found to be 121%. Also, in data set [2], the activity at 1 µM worked out at 49.5%, the activity at 5 µM was found to be 80.4% and the activity at 10 µM stood at 22.6%.
